Format in all cases: cell-based
Test [1] deals with MCF-10A normal-like breast epithelial cells. The experiment in a line: MTT dose response assay, MCF-10A. Particulars: Homo sapiens, 72 h.
Test [2] concerns JIMT-1 breast cancer cells. The experiment in a line: MTT dose response assay, JIMT-1. The following applies: Homo sapiens, JIMT-1, 72 h.
Test [3] relates to MCF-7 breast cancer cells. The experiment in a line: MTT dose response assay, MCF-7. Particulars: Homo sapiens, MCF7, 72 h. A general note: Tetrazolium assays rely on reduction of a dye to a coloured formazan, in cell work by metabolically active cells.
The mark [4] stands for this setting: read-out: IC50 (mean of three repeats ± SD).

Read-outs that look alike come from different tables or passages of the source.

What is called IC50 is the concentration that gives 50% inhibition. `C=C[C@@]12COC(=O)C(=C)[C@@H]1[C@@H](O)[C@H](C(=C)C(=O)OC)[C@@H](OC(=O)C(=C)CO)C2` [Vernodalol, reference compound]: the values for the IC50 in test [1] (setting [4]) and in test [2] (setting [4]) were 12.1 µM and 11.1 µM, respectively.

For the compound `C=C[C@@]12COC(=O)C(=C)[C@@H]1[C@H]1OC(=O)C(=C)[C@@H]1[C@@H](O)C2` [Vernolepin (5), Vernolepin], the results for the IC50 in test [1], in test [3] and in test [2] were 2.3 ± 0.2 µM, 15.9 ± 0.6 µM and 1.7 ± 0.3 µM, respectively.

(Values after publication PMC8920872 (Toxicology Reports, 2022).)
